Data on one compound can be found in PMC10666548, “Identification of the bacterial metabolite aerugine as potential trigger of human dopaminergic neurodegeneration” (Environment international, 2023).

One assay has as its system LUHMES neurons. Nature of the assay: LDH-release and resazurin reduction tests on d6 LUHMES. It is filed as cell-based, human. The following applies: 24 h. As for the experimental part:
The assay was performed as described earlier ([Latta et al., 2000]). In brief, supernatants were transferred to an un-coated 96-wellplate and cells were lysed in 110 μl of phosphate buffered saline (PBS) with 0.1% Triton-X100 for 1 h at room temperature. Lactate dehydrogenase (LDH) activity was assessed in the supernatant and the cell lysate individually by combining 10 μl sample with 100 μl potassium phosphate buffer pH 7.5 containing 640 μM pyruvate and […] NADH. NADH was quantified by measuring the absorption at 340 nm over 15 min and its decline was proportional to the LDH content. LDH release was calculated as the ratio of LDHsupernatant/LDHsupernatant+lysate.
The assay was performed as described previously ([Schildknecht et al., 2009]). In brief, cells were stained with 10 μg/ml resazurin and incubated for 30 min at 37 °C and 5% CO2. The fluorescence of resazurin was detected with an excitation wavelength of 530 nm, using a 590 nm long-pass filter to record the emission. […]
Supplementary Figure S7: Viability endpoints measured on d6 LUHMES treated with aerugine Cultures of differentiated LUHMES neurons were exposed on d6 to serial dilutions of aerugine for 24 h. The cell viability (V), neurite area (NA) were assessed 24 h later by calcein-AM & H-33342 staining and high content imaging. Resazurin reduction and LDH release were measured subsequently. […]
In general terms: The colour change of resazurin is a common sign of viable cells or microbes.

The subject of assay [1] is mitochondrial respiration in LUHMES cells. In words: Seahorse assessment of mitochondrial respiratory parameters. It is filed as cell-based, human. Particulars: d3 LUHMES. The procedure: The method was performed as described previously. ([Delp et al., 2018]) In brief, LUHMES cells were seeded on d2 into pre-coated Agilent Seahorse XFe24 well plates at a density of 100′000 cells/well in differentiation medium. On d3 the cells were analyzed in a Seahorse XF analyzer using the Mito stress test kit in accordance with the manufacturer’s instructions. In brief, 1 h prior to analysis the medium was changed to Seahorse XF base medium supplemented with 18 mM glucose, 2 mM glutamine and 1 mM pyruvate. The oxygen consumption rate (OCR) was measured to determine the basal respiration in untreated cells. After test compound injection the acute response was quantified. […] The addition of 0.5 μM rotenone and 0.5 μM antimycin A completely shut down mitochondrial respiration to quantify non-mitochondrial respiration. […] Image acquisition was performed using an Array-Scan VTI HCS Reader (Cellomics, PA, USA) equipped with a Hamamatsu ORCA-ER camera. […] Nuclei were identified and quantified depending on intensity, area, size and shape. According to pixel size and well size the total cell count was calculated and used for normalization of the OCR data. […]
A The effect of aerugine on respiratory function was analysed in d3 LUHMES cells. […] C Delp et al. (2019) determined the dependence of LUHMES cells on glycolysis and their mitochondria for ATP production in two different media conditions. […]

The next assay deals with Enterococcus faecalis. Nature of the assay: Bacterial growth assay. The assay is classed as cell-based. The following applies: 20 μM, log growth phase. The procedure: Enterococcus faecalis was grown in BHI medium (BD Difco Brain Heart Infusion) with 36 g/l supplemented with 20 μg/ml hemin, 20 μg/ml NAD and 15 g/l agar for plates. Enterococcus faecalis strain 438 originates from eye isolate. Neisseria gonorrhoeae strain MS11 was gifted by T. F. Meyer (Max-Planck-Institute for Infection Biology, Berlin, Germany) ([Edwards et al., 1984]).
Bacteria were grown as described above on solid medium. Prior to substance exposure, bacteria were pre-cultured in liquid medium for at least 2 h. Optical density was determined and a volume equal to an OD550 of 0.2 for Neisseria gonorrhoeae MS11 (equates a final OD550 of 0.04) and an OD600 of 0.2 for Enterococcus faecalis (equates a final OD600 of 0.04) was inoculated into 5 ml of the respective liquid medium. Compound was added at the indicated amounts. Dimethyl sulfoxide (DMSO) level was adjusted to 1 % of final concentration including DMSO control. Samples were incubated for either 10.5 h, until they reached a stationary phase (three measured values in stationary phase) or until they reached an OD of 2.5. Optical density was determined every 0.5 h at OD550 for Neisseria gonorrhoeae MS11 and at OD600 for Enterococcus faecalis. ([Szamosvári et al., 2019]).

Entries after “also recorded” stand apart in the source; their conditions may differ.

On to `OCC1CSC(c2ccccc2O)=N1` (stereo not shown) [aerugine, 2-[4-(hydroxymethyl)-4,5-dihydro-1,3-thiazol-2-yl]phenol], for which the “LDH-release and resazurin reduction viability” value in the assay with LUHMES neurons is reported as “confirmed the single cell data, although with slightly less sensitivity”. The “functional respiratory parameters (e.g. basal respiration, ATP production)” value in assay [1] is reported as “no significant difference was observed”. Moreover, the “oxygen consumption rate (OCR)” value in assay [1] (various metabolic conditions) is “not different from control conditions; also recorded: No interaction”. Besides, the viability or growth entry in the assay on Enterococcus faecalis is reported as “not affected in viability or growth”.
